Like-named read-outs stand apart in the source and are kept apart here.
Legend:
[1] = test system: Coronary artery smooth muscle cells (CASM3C system); assay: BioMAP CASM3C system (IL-1β, TNFα, IFNγ); assay type: cell-based, human; conditions: for inhibition at 10 µM: Homo sapiens, 24 h, read-out: % decrease in Thrombomodulin
[2] = test system: Peripheral blood mononuclear cells co-cultured with B-cells (BT system); assay: cells; conditions: Homo sapiens, 72 h; for activation at 1 µM / activation at 10 µM: read-out: % increase in sIL-6
[3] = test system: Propionic Acidemia (PA) primary fibroblasts Tsi 6337; assay: Mitochondrial respiration, XFe96 Extracellular Flux Analyzer (OCR/ECAR), PA fibroblasts Tsi 6337; assay type: cell-based; conditions: Homo sapiens, Fibroblast, read-out: Increase in Maximal Respiratory Capacity AUC
Protocol: The effect of the compounds of the present disclosure on mitochondrial respiration was measured with a XFe96 Extracellular Flux Analyzer (Seahorse Bioscience, Agilent Technologies) and Oxygen consumption Rate (OCR) and Extracellular acidification rate (ECAR) determined.
Cell culture and treatments. Primary adherent fibroblasts were cultured in minimum essential medium (MEM) (Gibco, 25030081) supplemented with 2 mM L-Glutamine (Gibco, 25030081), 15% fetal bovine serum (FBS) (Gibco, 26400044) and 1% penicillin/streptomycin (Gibco, 5140122) at 37° C. and 5% CO2. Cells were collected for either passaging or experiment at ˜70-80% confluence. Cells were obtained by trypsinization and seeded at 20000 cells/well in cell culture microplates (Seahorse Bioscience, 101085-004) and allowed to adhere for 16 hours in culture media.
By profiling different primary cells and/or optimizing their culture media or environmental components one can select cell lines and/or conditions that are appropriate for the biological or disease model. In the present example, 24 hours prior to OCR and ECAR profiling, media was changed to Dulbecco's Modified Eagle Medium (DMEM, Agilent Seahorse 103575-100) with the appropriate supplements for the different primary cells (10 mM glucose, 2 mM L-glutamine, 1 mM pyruvate, 10% FBS; 1 mM glucose, 2 mM L-glutamine, 1 mM pyruvate, 10% FBS; 10 mM glucose, 10% FBS; 5 mM glucose 10% FBS; 1 mM glucose 10% FBS). Cells used in this example were: Propionic Acidemia (PA) (GM00371, GM03590 Coriell Institute for Medical Research, Tsi 6337, Tsi 4626, Tsi 3618 Trans-Hit Bio), Methylmalonic Acidemia (MMA) (GM01673, Coriell Institute for Medical Research, Tsi 5224 Trans-Hit Bio), Branched chain ketoacid dehydrogenase kinase (BCKDK) (GM00612, GM00649 Coriell Institute for Medical Research), Subnormal activation of pyruvate dehydrogenase complex (PDH) (GM01503 Coriell Institute for Medical Research), Very long-chain acyl-CoA dehydrogenase (VLCAD) (GM17475), Leigh Syndrome (LS) (GM03672, GM13411 Coriell Institute for Medical Research), Pyruvate Carboxylase Deficiency (PC) (GM00444 Coriell Institute for Medical Research), Glutaric Acidemia-I (GA) (GM10653), Friedreich's Ataxia (FXN) (GM04078 Coriell Institute for Medical Research, Huntington's disease (HD) (GM21756 Coriell Institute for Medical Research), Ornithine Transcarbamylase Deficiency (OTC) (GM12756 Coriell Institute for Medical Research), Kearns-Sayre Syndrome (KSS) (GM06225 Coriell Institute for Medical Research).
One hour before the assay, the cells were washed with freshly prepared unbuffered serum free-Seahorse XF Assay medium (Seahorse Bioscience, North America, USA, 103575-100) with the same supplements as for the previous 24 hour incubation.
After baseline measurements of OCR, cells were challenged with compounds of the present disclosure at different concentrations (10 to 50 μM) or vehicle (DMSO, 0.1%) and a post-compound baseline was recorded. OCR was measured after sequentially adding to each well 1 μg/ml oligomycin (inhibitor of ATP synthase Sigma-Aldrich, 753531), then maximal OCR was determined with carbonyl cyanide 4-(trifluoromethoxy) phenylhydrazone (FCCP, Sigma-Aldrich, C2920), (uncoupler of oxidative phosphorylation) and 0.5 μM of rotenone (Sigma-Aldrich, R8875) plus antimycin A (Sigma-Aldrich, A8674) (inhibitors of mitochondrial complex I and III) for determination of rotenone-antimycin insensitive respiration together with Hoechst for nuclear staining in situ when normalized to cell counts. After the analysis and nuclear staining, the XFp microplate was transferred to the Cytation 5, and the nuclear images were captured, the individual nuclei were identified and counted by BioTek Gen5 software. Data were expressed as pmol of O2 per minute and normalized by nuclear staining and baselined to pre-compound addition.
Assay conditions were as stated below.
Assay specifics on assay conditions are indicated below when readouts were normalized to cell counts. […]

HepG2 cells = assay: MitoBiogenesis In-Cell ELISA (COX-I, SDH-A); assay type: cell-based; conditions: Homo sapiens, 168 h, 10 uM, 7 days, read-out: % increase in Mitochondrial Biogenesis
Method in brief: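 HepG2 cells were plated, adhered overnight at 37 °C/5% CO2, then exposed to test compounds (50–10 μM) in DMEM with 10% FBS for 7 days without media change; vehicle was 0.2% DMSO. COX-I and SDH-A were measured by in-cell ELISA and reported as signal relative to vehicle, n=2.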

[4] = PA Tsi 6337, assay condition A (10 mM glucose, 2 mM L-glutamine, 1 mM pyruvate, 10% FBS)
[5] = 10 uM, procedure of Example 832
[6] = PA Tsi 6337, assay condition D (1 mM glucose, 10% FBS)

CC(=O)OCC(C)(C)[C@@H](OC(C)=O)C(=O)NCCC(=O)NCCSC(C)=O [Compound 1264, (1R)-3-(acetyloxy)-1-[(2-[[2-(acetylsulfanyl)ethyl]carbamoyl]ethyl)carbamoyl]-2,2-dimethylpropyl acetate]
% increase in IL-6 ([1]; 1 uM, procedure of Example 832): ≥10%

COC(=O)CCC(=O)SCCNC(=O)CCNC(=O)[C@H](OC(=O)CN)C(C)(C)CO [Compound 1294, methyl 4-[(2-[3-[(2R)-2-[(2-aminoacetyl)oxy]-4-hydroxy-3,3-dimethylbutanamido]propanamido]ethyl)sulfanyl]-4-oxobutanoate]
% decrease in Tissue Factor ([1]; 1 uM): ≥10%
% decrease in uPAR ([1]; 1 uM): ≥10%
% decrease in M-CSF ([1]; 1 uM, procedure of Example 832): ≥10%
% decrease in VCAM-1 ([1]; 1 uM, procedure of Example 832): ≥10%
% decrease in HLA-DR ([1]; 10 uM): ≥10%
inhibition at 10 µM ([1]; 10 uM): ≥ 20%
inhibition at 1 µM ([2]; read-out: % decrease in sIL-17): ≥ 20%

CCCCCCC(=O)SCCNC(=O)CCNC(=O)[C@H](O)C(C)(C)CO [Compound 372, (2R)—N-(2-[[2-(heptanoylsulfanyl)ethyl]carbamoyl]ethyl)-2,4-dihydroxy-3,3-dimethylbutanamide]
% decrease in LDLR ([1]; 1 uM, procedure of Example 832): ≥10%
% decrease in VCAM-1 ([1]; 1 uM, procedure of Example 832): ≥10%
inhibition at 10 µM ([1]; 10 uM): ≥ 10%
activation at 1 µM [2]: ≥ 10%

CC(=O)SCCNC(=O)CCNC(=O)[C@H](O)C(C)(C)COC(=O)[C@@H](N)Cc1ccc(O)c(O)c1 [Compound 498, (3R)-3-[(2-[[2-(acetylsulfanyl)ethyl]carbamoyl]ethyl)carbamoyl]-3-hydroxy-2,2-dimethylpropyl (2S)-2-amino-3-(3,4-dihydroxyphenyl)propanoate]
% increase in IL-6 ([1]; 1 uM, procedure of Example 832): ≥10%
activation at 10 µM [2]: ≥ 10%

CC(C)(CO)[C@@H](O)C(=O)NCCC(=O)NCCSC(=O)[C@@H](N)Cc1ccc(O)c(O)c1 [Compound 371, (2R)—N-[2-[(2-[[(2S)-2-amino-3-(3,4-dihydroxyphenyl)propanoyl]sulfanyl]ethyl)carbamoyl]ethyl]-2,4-dihydroxy-3,3-dimethylbutanamide]
inhibition at 10 µM ([2]; read-out: % decrease in sIL-17): ≥ 20%

CC(C)(CO)[C@@H](O)C(=O)NCCC(=O)NCCSC(=O)C1CCC(=O)N1 (stereo partly drawn) [Compound 1227, S-2-{3-[(R)-2,4-dihydroxy-3,3-dimethylbutyrylamino]propionylamino}ethyl 5-oxo-2-pyrrolidinecarbothioate]
activation at 10 µM [3, 4]: ≥ 10%

CC1(CC(=O)SCCNC(=O)CCNC(=O)[C@H](O)C(C)(C)CO)OCCO1 [Compound 1252, (R)—S-(2-(3-(2,4-dihydroxy-3,3-dimethylbutanamido)propanamido)ethyl)-2-(2-methyl-1,3-dioxolan-2-yl)ethanethioate]
activation at 10 µM [3, 4]: ≥ 10%

COC(=O)CCC(=O)SCCNC(=O)CCNC(=O)[C@H](OC(=O)CNC(C)=O)C(C)(C)CO [Compound 1298, methyl 4-[(2-[3-[(2R)-2-[(2-acetamidoacetyl)oxy]-4-hydroxy-3,3-dimethylbutanamido]propanamido]ethyl)sulfanyl]-4-oxobutanoate]
% decrease in uPAR ([1]; 1 uM): ≥10%
% decrease in LDLR ([1]; 1 uM, procedure of Example 832): ≥10%
% decrease in VCAM-1 ([1]; 1 uM, procedure of Example 832): ≥10%
% increase in Proliferation [1, 5]: ≥10%
inhibition at 10 µM ([1]; 10 uM): ≥ 20%
activation at 1 µM [2]: ≥ 10%

COC(=O)CCC(=O)SCCNC(=O)CCNC(=O)[C@H](O)C(C)(C)COC(C)=O [Compound 138]
inhibition at 10 µM ([1]; 10 uM): ≥ 10%
inhibition at 1 µM ([2]; read-out: % decrease in sIL-17): ≥ 20%

COC(=O)/C=C/C(=O)SCCNC(=O)CCNC(=O)[C@H](O)C(C)(C)COP(=O)(O)O [Compound 73, methyl (R,E)-4-((2-(3-(2-hydroxy-3,3-dimethyl-4-(phosphonooxy)butanamido)propanamido)ethyl)thio)-4-oxobut-2-enoate]
activation at 10 µM [3, 6]: ≥ 10%

CC(=O)SCCNC(=O)CCNC(=O)[C@H](O)C(C)(C)COC(=O)[C@H](C)N [Compound 502, (3R)-3-[(2-[[2-(acetylsulfanyl)ethyl]carbamoyl]ethyl)carbamoyl]-3-hydroxy-2,2-dimethylpropyl (2S)-2-aminopropanoate]
inhibition at 10 µM ([1]; 10 uM): ≥ 10%
inhibition at 1 µM ([2]; read-out: % decrease in sIL-17): ≥ 20%
activation at 10 µM [2]: ≥ 10%

CC(C)C(=O)CC(=O)SCCNC(=O)CCNC(=O)[C@H](O)C(C)(C)CO [Compound 1239, (R)—S-(2-(3-(2,4-dihydroxy-3,3-dimethylbutanamido)propanamido)ethyl) 4-methyl-3-oxopentanethioate]
activation at 10 µM (HepG2 cells): > 5%

C[C@@H](O)CC(=O)CC(=O)SCCNC(=O)CCNC(=O)[C@H](O)C(C)(C)CO [Compound 42, (2R)-2,4-dihydroxy-N-[2-[(2-[[(5R)-5-hydroxy-3-oxohexanoyl]sulfanyl]ethyl)carbamoyl]ethyl]-3,3-dimethylbutanamide]
% increase in M-CSF [1, 5]: ≥10%
% increase in Proliferation [1, 5]: ≥10%

CC(C)(COC(=O)CCC(=O)O)[C@@H](O)C(=O)NCCC(=O)NCCS [Compound 1310, (R)-4-(3-hydroxy-4-((3-((2-mercaptoethyl)amino)-3-oxopropyl)amino)-2,2-dimethyl-4-oxobutoxy)-4-oxobutanoic acid]
activation at 10 µM [3, 4]: ≥ 10%

COC(=O)CC[C@H](N)C(=O)SCCNC(=O)CCNC(=O)[C@H](O)C(C)(C)CO [Compound 411]
activation at 10 µM [3, 4]: ≥ 10%
activation at 10 µM [3, 6]: ≥ 10%

COC(=O)CC(SCCNC(=O)CCNC(=O)[C@H](O)C(C)(C)COC(C)=O)C(=O)OC (stereo partly drawn) [Compound 149, 1,4-dimethyl 2-[(2-[3-[(2R)-4-(acetyloxy)-2-hydroxy-3,3-dimethylbutanamido]propanamido]ethyl)sulfanyl]butanedioate]
% increase in IL-6 [1, 5]: ≥10%
inhibition at 10 µM ([1]; 10 uM): ≥ 10%

CC(=O)SCCNC(=O)CCNC(=O)[C@H](O)C(C)(C)COC(=O)CCC(=O)O [Compound 1242, (R)-12-hydroxy-13,13-dimethyl-2,7,11,16-tetraoxo-15-oxa-3-thia-6,10-diazanonadecan-19-oic acid]
activation at 10 µM [3, 4]: ≥ 10%

CC(C)(COC(=O)OCC[N+](C)(C)C)[C@@H](O)C(=O)NCCC(=O)NCCSC(=O)CCC(=O)O [Compound 116, [2-([[(3R)-3-[[2-([2-[(3-carboxypropanoyl)sulfanyl]ethyl]carbamoyl)ethyl]carbamoyl]-3-hydroxy-2,2-dimethylpropoxy]carbonyl]oxy)ethyl]trimethylazanium]
% decrease in Proliferation ([1]; 1 uM, procedure of Example 832): ≥10%

C[C@H](CC(=O)SCCNC(=O)CCNC(=O)[C@H](O)C(C)(C)CO)OC(=O)CCC(=O)O [Compound 1243, 4-{[(2R)-4-[(2-{3-[(2R)-2,4-dihydroxy-3,3-dimethylbutanamido]propanamido}ethyl)sulfanyl]-4-oxobutan-2-yl]oxy}-4-oxobutanoic acid]
activation at 10 µM [3, 4]: ≥ 10%
